Laboratory results from BindingDB's records for doi:10.1007/s10822-022-00478-x (Roche Innovation Center Basel, F. Hoffmann-La Roche Ltd., 2022).

Target: cAMP and cAMP-inhibited cGMP 3',5'-cyclic phosphodiesterase 10A (Homo sapiens, UniProt Q9Y233)
Experiment: PDE10A assay
Method in brief: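 Scintillation proximity readout of [3H]cGMP hydrolysis (50 nM final substrate, 15 min) by 2 ng/well human PDE10A after 15 min compound preincubation at RT, pH 7.5 with MgCl2. Four-parameter logistic fit gave IC50, reported as pIC50.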

Compound	IC50 [nM]
Cn1cc(-c2ccncc2)c(C(=O)Nc2cc(-c3ccccn3)nn2C)n1 [Roche-Dataset for PDE10A, Compound 1102]	124
O=C(c1ccccc1)N1CCN(C(=O)c2nc(C3CC3)cnc2Nc2cncnc2)CC1 [Roche-Dataset for PDE10A, Compound 1104]	10000
O=C(Nc1cccnn1)c1nc(C2CC2)cnc1Nc1cncnc1 [Roche-Dataset for PDE10A, Compound 1105]	271
CCOC(=O)c1nnsc1NC(=O)c1nc(C2CC2)ccc1Nc1cncnc1 [Roche-Dataset for PDE10A, Compound 1107]	36
Cn1ncc(C(=O)N2CCC2)c1C(=O)Nc1ccn(C(C)(C)C)n1 [Roche-Dataset for PDE10A, Compound 1109]	672
COc1ccc2c(=O)n(C)c3c(C)nc(C)n3c2c1 [Roche-Dataset for PDE10A, Compound 1111]	2520
Cn1ncc(C(=O)N2CCC2)c1C(=O)Nc1n[nH]cc1C#N [Roche-Dataset for PDE10A, Compound 1112]	325
Cn1ncc(C(=O)N2CCC2)c1C(=O)Nc1ccn(CCC#N)n1 [Roche-Dataset for PDE10A, Compound 1114]	3150
Cc1ncc(C)n2nc(/C=C/c3nc(N4CC[C@@H](C)[C@H]4C)nn3C)nc12 [Roche-Dataset for PDE10A, Compound 1115]	32
CCCn1ccc(NC(=O)c2c(C(=O)N3CCC3)cnn2C)n1 [Roche-Dataset for PDE10A, Compound 1116]	404
CCOC(=O)c1cnn(C)c1C(=O)Nc1ccc2nc(N3CCOCC3)nn2c1 [Roche-Dataset for PDE10A, Compound 1117]	1990
CC(C)n1ccc(NC(=O)c2c(C(=O)N3CCC3)cnn2C)n1 [Roche-Dataset for PDE10A, Compound 1118]	1830
Cc1ncc(C)n2nc(/C=C/c3nc(N4CCN(C(=O)OC(C)(C)C)CC4)nn3C)nc12 [Roche-Dataset for PDE10A, Compound 1119]	402
CCNC(=O)c1c(NC(=O)c2c(C(=O)N3CCC3)cnn2C)cnn1C [Roche-Dataset for PDE10A, Compound 1120]	3130
CCn1ccc(NC(=O)c2c(C(=O)N3CCC3)cnn2C)n1 [Roche-Dataset for PDE10A, Compound 1121]	1320
CNC(=O)c1nn(C)cc1NC(=O)c1nc(C2CC2)ccc1N(C)c1cncnc1 [Roche-Dataset for PDE10A, Compound 1122]	10000
O=C(NCC(F)(F)F)c1nc(C2CC2)cnc1Nc1cncnc1 [Roche-Dataset for PDE10A, Compound 1124]	1240
C/C(=C\c1nc2c(C)ncc(C)n2n1)c1nc(Br)nn1C [Roche-Dataset for PDE10A, Compound 1125]	4820
O=C(N[C@@H]1C[C@H]2CC[C@@H]1C2)c1nc(C2CC2)cnc1Nc1cncnc1 [Roche-Dataset for PDE10A, Compound 1126]	1080
Cc1cnc(C)n2nc(/C=C/c3nc(Br)nn3C)nc12 [Roche-Dataset for PDE10A, Compound 1128]	2060
CNC(=O)c1c(NC(=O)c2c(C(=O)N3CCC3)cnn2C)cnn1C [Roche-Dataset for PDE10A, Compound 1129]	8330
Cc1cnc(C)n2nc(CCc3ncnn3C)nc12 [Roche-Dataset for PDE10A, Compound 1130]	2420
Cc1ncc(C)n2nc(CCc3nc(Br)nn3C)nc12 [Roche-Dataset for PDE10A, Compound 1131]	2480

Compound	IC50 [nM]
Cc1ncc(C)n2nc(/C=C/c3nc(N4CC[C@@H](NC(=O)OC(C)(C)C)C4)nn3C)nc12 [Roche-Dataset for PDE10A, Compound 1132]	752
Cn1ncc(C(=O)N2CCC2)c1C(=O)Nc1ccc2cc(-c3ccccc3)nn2n1 [Roche-Dataset for PDE10A, Compound 1133]	8.14
C/C(=C/c1nc2c(C)ncc(C)n2n1)c1nc(Br)nn1C [Roche-Dataset for PDE10A, Compound 1134]	2260
CCn1nc(NC(=O)c2c(C(=O)N3CCC3)cnn2C)cc1C1CC1 [Roche-Dataset for PDE10A, Compound 1135]	6120
CN(C)C(=O)c1cnn(Cc2ccccc2)c1C(=O)Nc1ccn2nc(N3CCOCC3)nc2c1 [Roche-Dataset for PDE10A, Compound 1136]	868
Cn1ccc(NC(=O)c2c(C(=O)N3CCC3)cnn2C)n1 [Roche-Dataset for PDE10A, Compound 1137]	1430
Cn1nccc1NC(=O)c1c(C(=O)N2CCC2)cnn1C [Roche-Dataset for PDE10A, Compound 1138]	1920
Cc1cc(NC(=O)c2c(C(=O)N3CCC3)cnn2C)cc(Br)n1 [Roche-Dataset for PDE10A, Compound 1139]	4650
Cc1cc(C)n2nc(CCc3nc(N(C)C)nn3C)nc2n1 [Roche-Dataset for PDE10A, Compound 1140]	535
Cc1cnc(C)n2nc(/C=C/c3ncnn3C)nc12 [Roche-Dataset for PDE10A, Compound 1142]	3910
O=C(N[C@]12C[C@H]3C[C@H](C[C@H](C3)C1)C2)c1nc(C2CC2)cnc1Nc1cncnc1 [Roche-Dataset for PDE10A, Compound 1143]	788
Cc1cc(C)n2nc(/C=C/c3nc(N(C)C)nn3C)nc2n1 [Roche-Dataset for PDE10A, Compound 1144]	924
Cc1ncc(C)n2nc(CCc3nc(N4CCN(C(c5ccccc5)c5ccccc5)C4=O)nn3C)nc12 [Roche-Dataset for PDE10A, Compound 1145]	4770
Cn1ncc(C(=O)N2CCC2)c1C(=O)Nc1cc2ccccn2n1 [Roche-Dataset for PDE10A, Compound 1147]	692
Cc1cc(NC(=O)c2c(C(=O)N3CCC3)cnn2C)n[nH]1 [Roche-Dataset for PDE10A, Compound 1149]	2680
Cc1ncc(C)n2nc(CCc3nc(N)nn3C)nc12 [Roche-Dataset for PDE10A, Compound 1150]	3930
Cn1ncc(C(=O)O)c1C(=O)Nc1ccc2nc(N3CCOCC3)nn2c1 [Roche-Dataset for PDE10A, Compound 1151]	1340
CNC(=O)c1c(NC(=O)c2nc(Cl)c(OC)nc2Nc2cncnc2)cnn1C [Roche-Dataset for PDE10A, Compound 1152]	4550
Cn1ncc(C(=O)NCc2nc3ccccc3[nH]2)c1C(=O)Nc1ccn2cc(-c3ccccc3)nc2n1 [Roche-Dataset for PDE10A, Compound 1153]	1520
O=C(NC1CCCCCC1)c1nc(C2CC2)cnc1Nc1cncnc1 [Roche-Dataset for PDE10A, Compound 1154]	1040
Cn1ncc(C(=O)N2CCC2)c1C(=O)Nc1cc[nH]n1 [Roche-Dataset for PDE10A, Compound 1155]	3130
Cn1ncc(C(=O)NCc2cc(C(F)(F)F)ccn2)c1C(=O)Nc1ccn2cc(-c3ccccc3)nc2n1 [Roche-Dataset for PDE10A, Compound 1156]	2760
Cn1ncc(C(=O)NCc2cccc(C(F)(F)F)n2)c1C(=O)Nc1ccn2cc(-c3ccccc3)nc2n1 [Roche-Dataset for PDE10A, Compound 1157]	4780

Compound	IC50 [nM]
Cc1cc(C)n2nc(/C=C/c3nc(Br)nn3C)nc2n1 [Roche-Dataset for PDE10A, Compound 1158]	10000
Cc1cc(C)n2nc(CCc3ncnn3C)nc2n1 [Roche-Dataset for PDE10A, Compound 1159]	10000
Cc1cc(C)c2c(NC(=O)c3c(C(=O)N4CCC4)cnn3C)nn(C)c2n1 [Roche-Dataset for PDE10A, Compound 1160]	4290
O=C(Nc1ccn(-c2ccncc2)n1)c1nc(C2CC2)ccc1Nc1cncnc1 [US8470820, 7]	9.7
Cn1nc(-c2ccccn2)cc1NC(=O)c1nc(C2CC2)ccc1Nc1cncnc1 [US8470820, 8]	3.23
O=C(Nc1cc(-c2ccccn2)nn1CCO)c1nc(C2CC2)ccc1Nc1cncnc1 [US8470820, 10]	2.25
COCc1ccc(Nc2cncnc2)c(C(=O)Nc2cc(-c3ccccn3)nn2CCO)n1 [US8470820, 11]	5.24
CN(C)CCn1nc(-c2ccccn2)cc1NC(=O)c1nc(C2CC2)ccc1Nc1cncnc1 [US8470820, 12]	1.05
CCOC(=O)Cn1nc(-c2ccccn2)cc1NC(=O)c1nc(C2CC2)ccc1Nc1cncnc1 [US8470820, 15]	3.74
O=C(Nc1cc(-c2ccccn2)nn1CCN1CCOCC1)c1nc(C2CC2)ccc1Nc1cncnc1 [US8470820, 16]	1.53
O=C(Nc1cc(-c2ccccn2)nn1CCc1ccccc1)c1nc(C2CC2)ccc1Nc1cncnc1 [US8470820, 17]	4.91
O=C(Nc1cc(-c2ccccn2)nn1CC(F)(F)F)c1nc(C2CC2)ccc1Nc1cncnc1 [US8470820, 22]	2.54
CCCn1nc(-c2ccccn2)cc1NC(=O)c1nc(C2CC2)ccc1Nc1cncnc1 [US8470820, 23]	1.68
O=C(Nc1cc(-c2cccc(Cl)n2)nn1CCO)c1nc(C2CC2)ccc1Nc1cncnc1 [US8470820, 24]	1.41
O=C(Nc1cc(-c2ccc3ccccc3n2)nn1CCO)c1nc(C2CC2)ccc1Nc1cncnc1 [US8470820, 25]	0.09
O=C(Nc1cc(-c2ccc(Cl)cn2)nn1CCO)c1nc(C2CC2)ccc1Nc1cncnc1 [US8470820, 26]	1.59
CC(C)n1nc(-c2ccccn2)cc1NC(=O)c1nc(C2CC2)ccc1Nc1cncnc1 [US8470820, 27]	2.55
CC(C)Cn1nc(-c2ccccn2)cc1NC(=O)c1nc(C2CC2)ccc1Nc1cncnc1 [US8470820, 28]	1.24
O=C(Nc1cc(-c2ccccn2)nn1Cc1ccccc1)c1nc(C2CC2)ccc1Nc1cncnc1 [US8470820, 29]	1.71
CCn1nc(-c2ccccn2)cc1NC(=O)c1nc(C2CC2)ccc1Nc1cncnc1 [US8470820, 30]	4.73
O=C(Nc1cc(-c2ccccn2)nn1CC1CCCC1)c1nc(C2CC2)ccc1Nc1cncnc1 [US8470820, 31]	1.12
O=C(Nc1cc(-c2ccccn2)nn1CC1CCCCC1)c1nc(C2CC2)ccc1Nc1cncnc1 [US8470820, 32]	1.06
